Among the data in patent US9371295B2, “Compounds for use in the treatment of disorders that are ameliorated by inhibition of HDAC” (IRBM—Science Park S.p.A., priority 2012, dated 2016) are IC50 and EC50 values, retold here.

One experiment concerns HDAC in Hela cells. Nature of the experiment: HDAC Hela Cell Based assay.
The target of another experiment is T1, HDAC1 (Homo sapiens, UniProt Q13547).
T1 construct: made in house
Nature of the experiment: HDAC1 assay (Fluor-de-Lys fluorescent deacetylase assay). The format is biochemical. The settings on record: read-out: hHDAC IC50. The essentials: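 Serially diluted compounds were pre-incubated with purified FLAG-tagged HDAC1 (1-2 nM final; from transfected HeLa cells) or HeLa nuclear extract, then given the Fluor-de-Lys acetyl-lysine substrate/developer; deacetylation read as fluorescence. Reactions were stopped with TSA (3 uM final).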

Experiment [1] concerns human γ-globin promoter (EGFP reporter) in K562 cells. Nature of the experiment: HbF activation assay on K562 (EGFP/RFP reporter model system for screening of inducers of fetal hemoglobin). The format is cell-based. The settings on record: 60 hours. Put shortly:
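K562 cells stably carrying EGFP under the human γ-globin promoter and far-red FP under the β-globin promoter, with the LCR, were seeded at 1000 cells/well. Cells were exposed to compounds (0.25% DMSO final) for 60 h at 37 °C. Fluorescence was read by plate cytometry, normalized to Hoechst nuclei count, which also indicated proliferation or death.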

Some results are limits rather than exact numbers.

T1 sequence (Q13547 whole entry): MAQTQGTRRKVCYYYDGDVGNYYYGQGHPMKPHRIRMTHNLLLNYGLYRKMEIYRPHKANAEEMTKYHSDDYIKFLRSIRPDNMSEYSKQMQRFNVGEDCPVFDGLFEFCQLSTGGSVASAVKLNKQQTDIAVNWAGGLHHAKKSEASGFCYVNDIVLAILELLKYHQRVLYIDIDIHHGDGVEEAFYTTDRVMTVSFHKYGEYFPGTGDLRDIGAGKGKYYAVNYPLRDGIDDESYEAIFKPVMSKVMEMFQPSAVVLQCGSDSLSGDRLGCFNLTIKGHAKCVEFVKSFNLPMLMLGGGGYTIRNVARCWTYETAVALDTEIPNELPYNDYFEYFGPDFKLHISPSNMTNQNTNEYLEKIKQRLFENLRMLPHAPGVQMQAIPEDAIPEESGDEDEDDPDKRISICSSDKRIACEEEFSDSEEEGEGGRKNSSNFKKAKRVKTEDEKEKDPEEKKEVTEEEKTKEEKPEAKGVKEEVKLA

In general, IC50 refers to the concentration that gives 50% inhibition. By EC50 is commonly meant the concentration at which the effect is half-maximal. A lower EC50 goes with higher potency in that assay. As for `CCC(=O)CCCCC[C@H](NC(=O)C1CNC1)c1ncc(-c2cc3ccccc3nc2OC)o1` [Compound 57, (S)-N-(1-(5-(2-methoxyquinolin-3-yl)oxazol-2-yl)-7-oxononyl)azetidine-3-carboxamide], the IC50 is 0.1 to 1 µM in the experiment on HDAC in Hela cells and less than 0.1 µM at HDAC1. In addition, the EC50 in experiment [1] was more than 1 µM.
In the same order, the values of `CCC(=O)CCCCC[C@H](NC(=O)[C@@H]1CC(F)(F)CN1)c1ncc(-c2cc3ccccc3nc2OC)o1` [Compound 60, (S)-4,4-difluoro-N-((S)-1-(5-(2-methoxyquinolin-3-yl)oxazol-2-yl)-7-oxononyl)pyrrolidine-2-carboxamide] are more than 1 µM, less than 0.1 µM and more than 1 µM.
For `CCC(=O)CCCCC[C@H](NC(=O)C1CCN(C)CC1)c1ncc(-c2ccccc2)o1` [Compound 3, (S)-1-methyl-N-(7-oxo-1-(5-phenyloxazol-2-yl)nonyl)piperidine-4-carboxamide], in that order: more than 1 µM, less than 0.1 µM and more than 1 µM.
In the same order, the values of `CCC(=O)CCCCC[C@H](NC(=O)c1nnc(C)o1)c1ncc(-c2cc3ccccc3nc2OC)o1` [Compound 90, (S)-N-(1-(5-(2-methoxyquinolin-3-yl)oxazol-2-yl)-7-oxononyl)-5-methyl-1,3,4-oxadiazole-2-carboxamide] are 0.1 to 1 µM, less than 0.1 µM and more than 1 µM.
On to `CCC(=O)CCCCC[C@H](NC(=O)Cn1cc2ccccc2n1)c1ncc(-c2cc3ccccc3nc2OC)o1` [Compound 88, (S)-2-(2H-indazol-2-yl)-N-(1-(5-(2-methoxyquinolin-3-yl)oxazol-2-yl)-7-oxononyl)acetamide], for which the IC50 in the experiment on HDAC in Hela cells was 0.1 to 1 µM; on HDAC1, less than 0.1 µM. The same compound yielded an EC50 in experiment [1] of more than 1 µM.
For `CCC(=O)CCCCC[C@H](NC(=O)Cn1c(C)nc2ccccc21)c1ncc(-c2ccccc2)o1` [Compound 18, (S)-2-(2-methyl-1H-benzo[d]imidazol-1-yl)-N-(7-oxo-1-(5-phenyloxazol-2-yl)nonyl)acetamide], in that order: more than 1 µM, 0.1 to 1 µM and more than 1 µM.
In the same order, the values of `CCC(=O)CCCCC[C@H](NC(=O)Cc1ncccn1)c1ncc(-c2cc3ccccc3nc2OC)o1` [Compound 79, (S)-N-(1-(5-(2-methoxyquinolin-3-yl)oxazol-2-yl)-7-oxononyl)-2-(pyrimidin-2-yl)acetamide] are 0.1 to 1 µM, less than 0.1 µM and more than 1 µM.
In the same order, the values of `CCC(=O)CCCCC[C@H](NC(=O)C1CCN(C)C1)c1ncc(-c2cc3ccccc3nc2OC)o1` (stereo partly drawn) [Compound 34, N-((S)-1-(5-(2-methoxyquinolin-3-yl)oxazol-2-yl)-7-oxononyl)-1-methylpyrrolidine-3-carboxamide] are 0.1 to 1 µM, less than 0.1 µM and 0.1 to 1 µM.
Take `CCC(=O)CCCCC[C@H](NC(=O)Cc1c(C)[nH]c2ccc(OC)cc12)c1nnc(-c2cc3ccccc3nc2OC)o1` [Compound 48, (S)-2-(5-methoxy-2-methyl-1H-indol-3-yl)-N-(1-(5-(2-methoxyquinolin-3-yl)-1,3,4-oxadiazol-2-yl)-7-oxononyl)acetamide]: the IC50 with HDAC in Hela cells and on HDAC1 was less than 0.1 µM each time. Besides, the EC50 in experiment [1] was more than 1 µM.
On to `CCC(=O)CCCCC[C@H](NC(=O)[C@@H](CC(F)(F)F)N(C)C)c1ncc(-c2cc3ccccc3nc2OC)o1` [Compound 64, (R)-2-(dimethylamino)-4,4,4-trifluoro-N-((S)-1-(5-(2-methoxyquinolin-3-yl)oxazol-2-yl)-7-oxononyl)butanamide], for which the half-inhibitory concentration (IC50) was more than 1 µM in the experiment with HDAC in Hela cells and less than 0.1 µM on HDAC1. The EC50 in experiment [1] is more than 1 µM.
As to `CCC(=O)CCCCC[C@H](NC(=O)Cc1cc2ncccn2n1)c1ncc(-c2cc3ccccc3nc2OC)o1` [Compound 89, (S)-N-(1-(5-(2-methoxyquinolin-3-yl)oxazol-2-yl)-7-oxononyl)-2-(pyrazolo[1,5-a]pyrimidin-2-yl)acetamide], the figures for the IC50 in the experiment on HDAC in Hela cells and at HDAC1 were 0.1 to 1 µM and less than 0.1 µM, respectively. Also, the EC50 in experiment [1] was more than 1 µM.
`CCC(=O)CCCCC[C@H](NC(=O)C1CCCCCN1C)c1ncc(-c2ccccc2)o1` (stereo partly drawn) [Compound 21, 1-methyl-N-((S)-7-oxo-1-(5-phenyloxazol-2-yl)nonyl)azepane-2-carboxamide]: the 50% inhibitory concentration (IC50) is more than 1 µM in the experiment on HDAC in Hela cells and 0.1 to 1 µM on HDAC1. The EC50 in experiment [1] is more than 1 µM.
For `CCC(=O)CCCCC[C@H](NC(=O)c1cncs1)c1ncc(-c2cc3ccccc3nc2OC)o1` [Compound 40, (S)-N-(1-(5-(2-methoxyquinolin-3-yl)oxazol-2-yl)-7-oxononyl)thiazole-5-carboxamide], the 50% inhibitory concentration (IC50) with HDAC in Hela cells and on HDAC1 was less than 0.1 µM in each case. The same compound registered an EC50 in experiment [1] of more than 1 µM.
`CCC(=O)CCCCC[C@H](NC(=O)Cn1ccnn1)c1ncc(-c2cc3ccccc3nc2OC)o1` [Compound 59, (S)-N-(1-(5-(2-methoxyquinolin-3-yl)oxazol-2-yl)-7-oxononyl)-2-(1H-1,2,3-triazol-1-yl)acetamide]: the IC50 with HDAC in Hela cells is 0.1 to 1 µM; on HDAC1 it was less than 0.1 µM. The EC50 in experiment [1] was more than 1 µM.
For `CCC(=O)CCCCC[C@H](NC(=O)CCC1CCCN(C)C1)c1ncc(-c2ccccc2)o1` (stereo partly drawn) [Compound 25, 3-(1-methylpiperidin-3-yl)-N-((S)-7-oxo-1-(5-phenyloxazol-2-yl)nonyl)propanamide], in that order: more than 1 µM, 0.1 to 1 µM and more than 1 µM.
For `CCC(=O)CCCCC[C@H](NC(=O)Cc1cccnc1)c1ncc(-c2cc3ccccc3nc2OC)o1` [Compound 74, (S)-N-(1-(5-(2-methoxyquinolin-3-yl)oxazol-2-yl)-7-oxononyl)-2-(pyridin-3-yl)acetamide], in that order: 0.1 to 1 µM, less than 0.1 µM and more than 1 µM.
In the same order, the values of `CCC(=O)CCCCC[C@H](NC(=O)C1(C)CN(C)C1)c1ncc(-c2cc3ccccc3nc2OC)o1` [Compound 84, (S)-N-(1-(5-(2-methoxyquinolin-3-yl)oxazol-2-yl)-7-oxononyl)-1,3-dimethylazetidine-3-carboxamide] are 0.1 to 1 µM, less than 0.1 µM and 0.1 to 1 µM.
As to `CCC(=O)CCCCC[C@H](NC(=O)CCN(C)C)c1ncc(-c2cc3ccccc3nc2OC)o1` [Compound 38, (S)-3-(dimethylamino)-N-(1-(5-(2-methoxyquinolin-3-yl)oxazol-2-yl)-7-oxononyl)propanamide], the IC50 in the experiment with HDAC in Hela cells and at HDAC1 was less than 0.1 µM in each case. In experiment [1], the EC50 lay within 0.1 to 1 µM.
As to `CCC(=O)CCCCC[C@H](NC(=O)C1CN(C)C1)c1ncc(-c2cccc3cccnc23)o1` [Compound 70, (S)-1-methyl-N-(7-oxo-1-(5-(quinolin-8-yl)oxazol-2-yl)nonyl)azetidine-3-carboxamide], the figures for the IC50 in the experiment with HDAC in Hela cells and at HDAC1 were 0.1 to 1 µM and less than 0.1 µM, respectively. In experiment [1], the EC50 was more than 1 µM.
Consider `CCC(=O)CCCCC[C@H](NC(=O)c1csc(CN(C)C)n1)c1ncc(-c2cc3ccccc3nc2OC)o1` [Compound 103, (S)-2-((dimethylamino)methyl)-N-(1-(5-(2-methoxyquinolin-3-yl)oxazol-2-yl)-7-oxononyl)thiazole-4-carboxamide], for which the IC50 in the experiment on HDAC in Hela cells and at HDAC1 was 0.1 to 1 µM each time. The EC50 in experiment [1] is more than 1 µM.
